Series [1] addresses Voltage-gated inwardly rectifying potassium channel KCNH2 (Homo sapiens, UniProt Q12809). As to the kind of experiment: Inhibition of human ERG by whole-cell patch clamp method. Background: The patch-clamp technique gives a direct electrical read-out from membranes.
Series [2] concerns the target Voltage-dependent T-type calcium channel subunit alpha-1G (Homo sapiens, UniProt O43497). The series is described as follows: Inhibition of T-type calcium channel subunit alpha-1G (unknown origin) expressed in HEK293 cells assessed as inactivation of channel current at holding potential of 30 to 100mV by whole-cell patch clamp method. Type of series: cell-based.
Series [3] is described as follows: AUC (0 to infinity) in Sprague-Dawley rat at 10 mg/kg, iv. In kind it is ADME, organism-based. More on the design: time infinity, dose 10 mg/kg, route intravenous. Particulars: plasma.
A short description of series [4]: Half life in Sprague-Dawley rat at 10 mg/kg, iv. In kind it is ADME, organism-based. More on the design: dose 10 mg/kg, route intravenous. The conditions noted are these: in vivo.
Series [5] relates to HEK293. The series is described as follows: Selectivity ratio of IC50 for human ERG to IC50 for T-type calcium channel subunit alpha-1G (unknown origin) expressed in human HEK293 cells. Type of series: cell-based.
Series [6] can be described thus: Tmax in Sprague-Dawley rat at 10 mg/kg, po. Type of series: ADME, organism-based. More on the design: dose 10 mg/kg, route oral. The conditions noted are these: in vivo.
Series [7] deals with Voltage-dependent L-type calcium channel subunit alpha-1C (Homo sapiens, UniProt Q13936). The series is described as follows: Inhibition of L-type calcium channel subunit-1C (unknown origin) expressed in HEK293 cells by whole-cell patch clamp method. Type of series: cell-based.
Series [8] is described as follows: Half life in Sprague-Dawley rat at 10 mg/kg, po. Type of series: ADME, organism-based. More on the design: dose 10 mg/kg, route oral. The conditions noted are these: in vivo.
In a further series the test system is Plasma. As to the kind of experiment: Metabolic stability in rat plasma after 2 hrs. In kind it is ADME, cell-free.
Series [9] deals with HEK293. The series is described as follows: Selectivity ratio of IC50 for L-type calcium channel subunit-1C (unknown origin) to IC50 for T-type calcium channel subunit alpha-1G (unknown origin) expressed in HEK293 cells. The conditions noted are these: Homo sapiens. In kind it is cell-based.
The nature of series [10]: Bioavailability in Sprague-Dawley rat at 10 mg/kg, […]. The conditions noted are these: in vivo. In kind it is ADME, organism-based.
Series [11] in a line: Half life in human microsomes. In kind it is ADME, Microsome.
The nature of series [12]: Cmax in Sprague-Dawley rat at 10 mg/kg, po. More on the design: dose 10 mg/kg, route oral. Particulars: in vivo. Type of series: ADME, organism-based.
Series [13] is described as follows: AUC (0 to infinity) in Sprague-Dawley rat at 10 mg/kg, po. Type of series: ADME, organism-based. More on the design: time infinity, dose 10 mg/kg, route oral. The conditions noted are these: plasma.

Sequence of Voltage-gated inwardly rectifying potassium channel KCNH2 (Q12809 whole entry): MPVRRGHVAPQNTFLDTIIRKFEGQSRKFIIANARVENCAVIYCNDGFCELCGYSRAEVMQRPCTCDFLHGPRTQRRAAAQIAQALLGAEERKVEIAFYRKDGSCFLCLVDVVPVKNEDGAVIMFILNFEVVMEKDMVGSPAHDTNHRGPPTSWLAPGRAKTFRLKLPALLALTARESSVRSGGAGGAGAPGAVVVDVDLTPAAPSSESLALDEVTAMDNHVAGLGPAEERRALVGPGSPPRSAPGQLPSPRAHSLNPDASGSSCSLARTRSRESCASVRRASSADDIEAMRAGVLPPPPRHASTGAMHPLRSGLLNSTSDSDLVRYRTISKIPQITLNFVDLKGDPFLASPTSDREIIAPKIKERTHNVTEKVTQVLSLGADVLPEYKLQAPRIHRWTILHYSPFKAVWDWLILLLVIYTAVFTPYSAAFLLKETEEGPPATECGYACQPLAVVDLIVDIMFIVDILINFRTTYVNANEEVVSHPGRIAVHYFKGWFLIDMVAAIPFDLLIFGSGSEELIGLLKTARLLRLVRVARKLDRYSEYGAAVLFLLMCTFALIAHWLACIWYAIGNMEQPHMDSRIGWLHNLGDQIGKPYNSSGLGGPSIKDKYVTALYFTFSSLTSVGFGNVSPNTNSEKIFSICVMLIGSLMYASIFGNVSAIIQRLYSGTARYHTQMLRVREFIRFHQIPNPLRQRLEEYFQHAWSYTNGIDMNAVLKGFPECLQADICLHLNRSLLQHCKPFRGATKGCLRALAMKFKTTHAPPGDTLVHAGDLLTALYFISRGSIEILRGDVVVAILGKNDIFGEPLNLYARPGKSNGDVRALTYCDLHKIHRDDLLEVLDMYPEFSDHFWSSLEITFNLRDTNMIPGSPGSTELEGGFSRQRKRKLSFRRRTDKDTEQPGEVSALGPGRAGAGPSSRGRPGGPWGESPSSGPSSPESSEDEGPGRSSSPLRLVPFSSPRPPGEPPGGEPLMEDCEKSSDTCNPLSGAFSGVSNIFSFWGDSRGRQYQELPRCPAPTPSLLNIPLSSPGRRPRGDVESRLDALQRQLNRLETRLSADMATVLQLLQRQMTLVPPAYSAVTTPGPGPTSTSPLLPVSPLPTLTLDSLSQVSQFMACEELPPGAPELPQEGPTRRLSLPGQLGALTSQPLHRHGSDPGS
Sequence of Voltage-dependent T-type calcium channel subunit alpha-1G (O43497 whole entry): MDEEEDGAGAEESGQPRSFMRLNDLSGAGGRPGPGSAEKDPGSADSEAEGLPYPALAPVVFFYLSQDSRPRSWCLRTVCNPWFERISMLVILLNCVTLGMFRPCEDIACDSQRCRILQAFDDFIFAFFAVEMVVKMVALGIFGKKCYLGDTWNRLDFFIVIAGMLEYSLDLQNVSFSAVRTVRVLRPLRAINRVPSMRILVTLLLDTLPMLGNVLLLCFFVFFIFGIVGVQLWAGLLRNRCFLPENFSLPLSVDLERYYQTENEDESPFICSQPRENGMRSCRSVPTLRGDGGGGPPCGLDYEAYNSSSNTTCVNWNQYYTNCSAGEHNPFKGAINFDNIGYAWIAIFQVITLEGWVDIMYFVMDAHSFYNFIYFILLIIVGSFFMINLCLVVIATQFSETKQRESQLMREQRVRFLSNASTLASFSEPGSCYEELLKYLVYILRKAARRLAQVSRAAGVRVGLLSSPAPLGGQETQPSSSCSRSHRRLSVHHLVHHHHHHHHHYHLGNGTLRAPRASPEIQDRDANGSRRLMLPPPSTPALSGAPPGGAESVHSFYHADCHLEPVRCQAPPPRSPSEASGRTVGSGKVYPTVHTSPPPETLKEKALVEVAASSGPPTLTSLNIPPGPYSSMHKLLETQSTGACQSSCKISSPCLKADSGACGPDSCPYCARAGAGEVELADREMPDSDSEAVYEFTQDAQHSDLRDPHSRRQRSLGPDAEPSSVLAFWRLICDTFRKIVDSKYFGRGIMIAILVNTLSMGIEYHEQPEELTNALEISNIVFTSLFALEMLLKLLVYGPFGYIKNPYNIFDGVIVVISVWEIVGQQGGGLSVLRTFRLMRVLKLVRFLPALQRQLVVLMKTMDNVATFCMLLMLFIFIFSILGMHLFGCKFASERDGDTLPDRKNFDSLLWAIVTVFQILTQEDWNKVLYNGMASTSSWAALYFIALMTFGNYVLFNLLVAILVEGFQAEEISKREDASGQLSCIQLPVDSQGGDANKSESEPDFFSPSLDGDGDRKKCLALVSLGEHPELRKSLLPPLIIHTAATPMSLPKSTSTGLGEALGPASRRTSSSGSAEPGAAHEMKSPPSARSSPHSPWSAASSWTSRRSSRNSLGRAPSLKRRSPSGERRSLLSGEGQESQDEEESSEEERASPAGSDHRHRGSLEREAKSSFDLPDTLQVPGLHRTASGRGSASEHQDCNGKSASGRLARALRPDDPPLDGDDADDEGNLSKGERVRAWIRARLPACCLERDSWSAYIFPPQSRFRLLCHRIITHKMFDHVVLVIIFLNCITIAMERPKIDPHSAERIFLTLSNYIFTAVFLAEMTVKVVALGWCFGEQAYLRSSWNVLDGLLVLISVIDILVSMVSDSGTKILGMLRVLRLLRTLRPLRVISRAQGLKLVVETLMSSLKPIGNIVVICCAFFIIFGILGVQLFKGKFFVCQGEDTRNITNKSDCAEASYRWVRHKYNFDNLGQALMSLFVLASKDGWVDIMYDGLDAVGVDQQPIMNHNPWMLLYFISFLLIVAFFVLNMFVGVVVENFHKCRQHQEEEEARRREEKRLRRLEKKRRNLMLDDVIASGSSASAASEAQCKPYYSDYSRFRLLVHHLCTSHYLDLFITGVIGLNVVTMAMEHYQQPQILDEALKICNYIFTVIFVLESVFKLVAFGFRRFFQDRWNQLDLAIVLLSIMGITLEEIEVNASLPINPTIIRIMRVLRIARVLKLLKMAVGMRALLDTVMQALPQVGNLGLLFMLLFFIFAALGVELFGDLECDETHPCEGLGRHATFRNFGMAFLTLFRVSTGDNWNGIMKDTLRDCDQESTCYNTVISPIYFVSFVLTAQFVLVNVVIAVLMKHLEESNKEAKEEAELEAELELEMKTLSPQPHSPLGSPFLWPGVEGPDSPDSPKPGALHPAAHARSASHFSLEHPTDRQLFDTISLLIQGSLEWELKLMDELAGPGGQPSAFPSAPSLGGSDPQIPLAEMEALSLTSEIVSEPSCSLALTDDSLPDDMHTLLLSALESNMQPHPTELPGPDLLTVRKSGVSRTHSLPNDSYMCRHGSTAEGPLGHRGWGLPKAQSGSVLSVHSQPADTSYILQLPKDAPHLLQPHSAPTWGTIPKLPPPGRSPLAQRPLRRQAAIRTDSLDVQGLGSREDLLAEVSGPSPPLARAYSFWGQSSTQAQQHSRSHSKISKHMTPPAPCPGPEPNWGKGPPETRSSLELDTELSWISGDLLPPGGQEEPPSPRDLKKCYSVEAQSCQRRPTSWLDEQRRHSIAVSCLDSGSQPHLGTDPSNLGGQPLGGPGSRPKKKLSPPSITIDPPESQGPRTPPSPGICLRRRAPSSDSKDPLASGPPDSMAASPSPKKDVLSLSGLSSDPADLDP

What is called IC50 is the concentration that inhibits the measured activity by half. As for `COC(=O)C(CCCN1CC=C(c2ccccc2OC)CC1)(c1ccc(Br)cc1)C(C)C` (stereo unspecified), the results for the half-maximal inhibitory concentration (IC50) in [1] and in [2] were 1260 nM and 3240 nM, respectively.

Consider `COc1ccccc1N1CCN(CCCC(C(=O)O)(c2ccc(Br)cc2)C(C)C)CC1` (stereo unspecified), for which the IC50 in series [1] is 3960 nM; in [2] it was 3260 nM.

One may read the AUC(0-inf) as the area under the concentration-time curve extrapolated to infinity. Lower therefore signals low exposure. As a reminder, the half-life is the time needed for the level to fall by half in the phase considered. A low value points to fast loss. In general, Tmax refers to the time at which the peak concentration occurs. By bioavailability is commonly meant dose-corrected exposure relative to a reference, in per cent. For orientation: Cmax means the peak of the concentration-time curve. With `COC(=O)C(CCC(=O)N(C)CCCc1nc2ccccc2[nH]1)(c1ccc(Br)cc1)C(C)C` (stereo unspecified), the area under the curve AUC(0-inf) was 9620 ng·h/mL in [3] and 5800 ng·h/mL in series [13]. Further, the half-life in series [4] stood at 1.76 h; in series [8], 0.795 h; in series [11], 4 h. Further, the Ratio IC50 with HEK293 [5] is > 220; in the series on HEK293 [9], 96.8. The half-maximal inhibitory concentration (IC50) was 12500 nM in series [1], 5420 nM in series [7] and 56 nM in [2]. In addition, the Tmax in [6] is 0.5 h. The Stability entry in the series with Plasma is reported as “Stable”. The compound further returned a bioavailability in [10] of 60.3%. The compound further had a maximum concentration (Cmax) in [12] of 4580 ng/mL.

With `COC(=O)C(CCCN(C)CCCc1nc2ccccc2[nH]1)(c1ccc(Br)cc1)C(C)C` (stereo unspecified), in series [3], the area under the curve AUC(0-inf) was 906 ng·h/mL. In addition, the values for the half-life in series [4] and in series [11] were 1.3 h and 2 h, respectively. Besides, the Stability result in the series on Plasma is “Stable”.

Regarding `COC(=O)C(CCCN1CCC(c2ccccc2OC)CC1)(c1ccc(Br)cc1)C(C)C` (stereo unspecified), the half-inhibitory concentration (IC50) in series [2] was found to be 2650 nM.

For the compound `CC(C)C(CCCN(C)CCCc1nc2ccccc2[nH]1)(C(=O)O)c1ccc(Br)cc1` (stereo unspecified), the IC50 in series [1] was determined as 2340 nM; in series [2] it was 1360 nM.

As for `COC(=O)C(CCC(=O)N1CCN(c2ccccc2OC)CC1)(c1ccc(Br)cc1)C(C)C` (stereo unspecified), the AUC(0-inf) in series [3] was 5080 ng·h/mL; in series [13], 467 ng·h/mL. The half-life is 4.9 h in [4], 2.21 h in series [8] and 3.67 h in [11]. Besides, in series [6], the Tmax is 0.5 h. The IC50 in [7] was determined as 5900 nM; in [2], 654 nM. In the series with Plasma, the Stability entry is “Stable”. For the same compound, in series [10], the bioavailability was 9.2%. In series [12], this compound returned a Cmax of 218 ng/mL.

The values are drawn from ChEMBL document CHEMBL3112460, “Successful reduction of off-target hERG toxicity by structural modification of a T-type calcium channel blocker” (Bioorg Med Chem Lett, 2014).
